The structures appear in SMILES notation.

The nature of the first data set: in vitro. Conditions: human, hela cells, % viability.
For the compound `CN(CC(=O)Nc1ccccc1C(N)=O)S(=O)(=O)c1ccc(Br)cc1` [CBK268648], the viability at 28.5 h, 10 µM is 98.7%.
With `CC(C(=O)NC(c1ccncc1)c1cccs1)n1ccnc1` (centres unmarked) [CBK281438], the viability at 28.5 h, 10 µM came to 90.9%.
For the compound `O=C(NCCCn1cc(Cl)cn1)N1CCCN(Cc2cccs2)CC1` [CBK307279], the viability at 28.5 h, 10 µM was 105%.
For the compound `CCOc1cc(-c2nc3sc(CC)cc3c(=O)[nH]2)ccc1OCC(=O)O` [CBK298291], the viability at 28.5 h, 10 µM was found to be 88.4%.
Take `CN(C)CCNc1c2c(nc3ccccc13)CCC2` [CBK263732C]: the viability at 28.5 h, 10 µM was found to be 98.1%.
Consider `CC(C)c1nc(CCN(C)C(=O)NCc2cc(-c3ccco3)on2)no1` [CBK307443], for which the viability at 28.5 h, 10 µM was determined as 97.8%.
On the same count and under the same terms, next, `O=C(c1cnn(-c2cccc(Cl)c2)c1)N1CCOCC1CC(F)F` (centres unmarked) [CBK304207]: 95.5%; `CC1CN(CCC(=O)O)Cc2cc(Cl)ccc2O1` (centres unmarked) [CBK286899]: 103%.
Regarding `C/C(=N\NC(=O)Cc1ccc([N+](=O)[O-])cc1[N+](=O)[O-])c1ccccc1O` [CBK261175], the viability at 28.5 h, 10 µM is 88.8%.
The same measure, in the same setting: as for `O=C(Nc1cccc([N+](=O)[O-])c1)c1ccc(CSc2ccccc2)cc1` [CBK265295], the figure is 117%; as for `O=C(NCCc1cccs1)NCc1cc(F)ccc1F` [CBK045363], 97.1%; as for `Cc1nc2c(OCc3ccc(C#N)cc3)cccn2c1N(C)Cc1cccs1` [CBK147336], 92%.
Consider `CCN(Cc1ccncc1)C(=O)Nc1cccnc1` [CBK145053], for which the viability at 28.5 h, 10 µM was 111%.
On to `CC1(C)[C@H](Cc2cc(CN3CCOCC3)on2)C[C@@H]1NC(=O)C1CC1` [CBK289246], for which the viability at 28.5 h, 10 µM is 113%.
For the compound `O=C(Nc1ccccc1C(=O)O)c1cc(S(=O)(=O)Nc2ccc(F)cc2)ccc1Cl` [CBK263248], the viability at 28.5 h, 10 µM is 120%.
As for `N#Cc1c(NC(=O)c2ccc(C(=O)O)cc2C(=O)O)sc2c1CCCC2` [CBK262722], the viability at 28.5 h, 10 µM stood at 105%.
Turning to `Cc1nn(-c2ccccn2)c(N)c1C1CC(=O)N(c2ccc(C(=O)O)cc2)C1=O` (centres unmarked) [CBK291180], the viability at 28.5 h, 10 µM was 95.2%.
Same read-out and setting: as for `O=C(c1ccc2c(c1)OCCO2)N1CCN(C(=O)c2ccco2)CC1` [CBK144480], the figure is 101%; as for `Cc1ccc2ncnc(NCCCCCC(=O)O)c2c1` [CBK287256], 91.4%; as for `CC(=O)Nc1ccc(CNC(=O)c2cccnc2OCC(F)(F)F)cc1` [CBK305682], 91.5%.
`CCn1cc(-c2cncn2C(CCN(C)C)c2ccccc2)cn1` (centres unmarked) [CBK281741]: the viability at 28.5 h, 10 µM amounted to 79.2%.
Consider `O=C(Cn1c(=O)n(Cc2ccco2)c2ncccc21)N1CCCC1` [CBK284708], for which the viability at 28.5 h, 10 µM is 88.9%.
Still for that read-out and setting: as for `CC(Cc1nc(-c2cnnn2C)cs1)n1cc(Cl)cn1` (centres unmarked) [CBK304245], the figure is 99.6%.
Turning to `N#CCCSc1ccn(C2CC(O)C(CO)O2)c(=O)n1` (centres unmarked) [CBK201261], the viability at 28.5 h, 10 µM came to 97.9%.
`N#Cc1ccccc1COC(=O)c1cc(-c2ccc(/C=C/c3[nH]c(=O)[nH]c(=O)c3[N+](=O)[O-])o2)ccc1Cl` [CBK268888]: the viability at 28.5 h, 10 µM came to 111%.
Same read-out and setting: as for `O=C(NC(c1ccc(-c2ccccc2)cc1)c1cnccn1)C1CCN(CCOc2ccc3ccccc3c2)CC1` (centres unmarked) [CBK147982], the figure is 93.6%.
Regarding `Cc1nc(N)sc1-c1csc(Nc2cccc(C(F)(F)F)c2)n1` [CBK267357], the viability at 28.5 h, 10 µM amounted to 95.2%.
Regarding `Cn1cc(-c2nc(C(=O)NCC3CCN(c4ccccc4)C3)cs2)cn1` (centres unmarked) [CBK305633], the viability at 28.5 h, 10 µM came out at 84.8%.
In the case of `Cn1c(SCC(=O)NCCCN2CCOCC2)nc2ccccc2c1=O` [CBK287607], the viability at 28.5 h, 10 µM amounted to 109%.
Consider `Cc1cccc(C)c1NC(=O)CN1CCN(c2nccnc2OCC2COc3ccccc3O2)CC1` (centres unmarked) [CBK082801T], for which the viability at 28.5 h, 10 µM was determined as 88.9%.
`O=C(CSc1nnc(-c2ccccc2)n1-c1ccc(Cl)cc1)NCc1ccco1` [CBK266637]: the viability at 28.5 h, 10 µM came to 99.2%.
As to `O=C(Nc1ccc(-c2noc(COc3ccc(Br)cc3)n2)cc1)c1ccc2c(c1)OCO2` [CBK266692], the viability at 28.5 h, 10 µM was found to be 97.2%.
As for `O[C@@H]1CN(Cc2ccc(F)c(F)c2)CC[C@H]1NC1CC1` [CBK283319], the viability at 28.5 h, 10 µM was found to be 94%.
Consider `COc1cccc(C2=CC(c3ccccc3Cl)N3N=NNC3=N2)c1` (centres unmarked) [CBK287943], for which the viability at 28.5 h, 10 µM came to 84.4%.
`CC(C)c1nc(CC(=O)NCCS(=O)(=O)N2CCc3ccccc32)cs1` [CBK305630]: the viability at 28.5 h, 10 µM is 84.5%.
For the compound `CC(Sc1nc2ccccc2[nH]1)c1nc2ccccc2[nH]1` (centres unmarked) [CBK266502], the viability at 28.5 h, 10 µM came out at 89.7%.
For `CN1CCC(N(C)C(=O)NCc2cccnc2)C1` (centres unmarked) [CBK156001], the viability at 28.5 h, 10 µM stood at 93.5%.
Same read-out and setting: as for `COc1ccc2c(c1)/C(=C/c1cnc[nH]1)C(=O)N2` [CBK115354], the figure is 72.5%; as for `CC1CCC2(CC1)NC(=O)N(Cc1csc(-c3ccco3)n1)C2=O` (centres unmarked) [CBK304279], 98.6%.
Consider `CCOc1ccccc1/C=N/Nc1ccccc1[N+](=O)[O-]` [CBK261673], for which the viability at 28.5 h, 10 µM came to 94.7%.
The same measure, in the same setting: as for `CNS(=O)(=O)c1cc(C(=O)NCc2ccco2)ccc1OC` [CBK270180], the figure is 103%; as for `N#Cc1c(NC(=O)CSc2nnnn2-c2ccc(C(=O)O)cc2)sc2c1CCCC2` [CBK299876], 87.6%.
Turning to `Cc1cc(C(F)F)n2nc(C(=O)Nc3cccc(S(=O)(=O)N4CCOCC4)c3)nc2n1` [CBK266198], the viability at 28.5 h, 10 µM was determined as 101%.
`Cc1c(C(=O)NC(Cc2cccs2)c2nccs2)cnn1C` (centres unmarked) [CBK285053]: the viability at 28.5 h, 10 µM is 97.1%.
Consider `O=c1cnn([C@H]2C[C@@H](O)[C@@H](CO)O2)c(=O)[nH]1` [CBK201162], for which the viability at 28.5 h, 10 µM turned out to be 93.4%.
Regarding `Cc1ccc(C)c2c1CCCC2N1CCC(NS(C)(=O)=O)CC1` (centres unmarked) [CBK304038], the viability at 28.5 h, 10 µM was 103%.
Take `Cc1ccc(S(=O)(=O)NCCNc2ccc(Cl)cc2[N+](=O)[O-])cc1` [CBK263784]: the viability at 28.5 h, 10 µM is 104%.
Same read-out and setting: as for `COc1ccc(C(C)C)cc1-c1ccnc2[nH]c(=O)ccc12` [CBK073735], the figure is 102%; as for `COCC(C)NS(=O)(=O)c1cc(Cl)ccc1OC` (centres unmarked) [CBK270203], 90.7%; as for `Cn1c(NC(=O)CSc2nnc(Cc3cccc4ccccc34)o2)cc(=O)n(C)c1=O` [CBK266055], 115%.
Consider `CC(C)[C@H](NC(=O)Cc1n[nH]c(=O)c2ccccc12)C(=O)O` [CBK286607], for which the viability at 28.5 h, 10 µM worked out at 95.2%.
Regarding `C/C(CS(=O)(=O)c1ccccc1)=N/NC(N)=S` [CBK026285], the viability at 28.5 h, 10 µM worked out at 111%.
The same measure, in the same setting: as for `O=C(Cn1c(-c2cccs2)cc2cccnc21)N1CCC(O)CC1` [CBK282458], the figure is 113%; as for `CC(=O)Nc1cccc(C(=O)N2CCCC2c2ccncc2)c1` (centres unmarked) [CBK305080], 96.5%; as for `CCCCN1CC(C(=O)Nc2nccs2)CC1=O` (centres unmarked) [CBK288224], 95.3%.
Regarding `Clc1ccc(N2CCN(c3cnc4ccccc4n3)CC2)cc1Cl` [CBK066903], the viability at 28.5 h, 10 µM turned out to be 97.8%.
As for `COc1ccccc1CC(=O)Nc1ncccc1OCCCC#N` [CBK304952], the viability at 28.5 h, 10 µM turned out to be 91%.
Turning to `Cc1ccc(-c2nnc(NCc3cnn(C)c3C)o2)c(C)c1` [CBK306166], the viability at 28.5 h, 10 µM stood at 88.2%.
On to `COc1cccc2sc(NC(=O)c3ccc4ncsc4c3)nc12` [CBK287365], for which the viability at 28.5 h, 10 µM is 98.5%.
As to `CN(CCCNC(=O)/C=N/O)CCCC(C)(C)C` [CBK288480], the viability at 28.5 h, 10 µM is 110%.
Still for that read-out and setting: next, `O=C(O)c1ccc(N2CCN(CCO)CC2)c([N+](=O)[O-])c1` [CBK264911C]: 100%; `Cn1ncc2c1CCCN(C(=O)Cc1ccc(Cl)cc1)C2` [CBK285231]: 106%.
As to `CS(=O)(=O)c1ccc(-c2ccc3c(c2)CN(C2CCN(C(=O)c4ccccc4)CC2)CCO3)cc1` [CBK169265], the viability at 28.5 h, 10 µM turned out to be 103%.
On the same count and under the same terms, as for `Cc1ccc(OCCCC(=O)N2CCCc3c(cnn3C)C2)c(C)c1` [CBK285288], the figure is 96.9%; as for `CCOc1cccc(-c2cn3ccnc3c(N3CCN(CCO)CC3)n2)c1` [CBK066612], 95.9%.
As for `Cc1nn2c(C)c(C(=O)Nc3ccccc3)nnc2c1-c1ccccc1` [CBK270198], the viability at 28.5 h, 10 µM amounted to 85.6%.
Take `O=c1[nH]c2c(cc1CNc1cccc(O)c1)c(-c1cccc(F)c1)nn2-c1ccccc1` [CBK286463]: the viability at 28.5 h, 10 µM is 93%.
Consider `O=C(O)COc1ccccc1/C=N/n1c(S)nnc1-c1ccc(Cl)cc1Cl` [CBK264418], for which the viability at 28.5 h, 10 µM worked out at 89.5%.
For the compound `O=C(Nc1cccnc1)c1cc(S(=O)(=O)N2CCOCC2)ccc1Cl` [CBK262099], the viability at 28.5 h, 10 µM stood at 84.7%.
For the compound `CCn1nc(CC(C)C)cc1C(=O)NCCc1cn2cccnc2n1` [CBK306553], the viability at 28.5 h, 10 µM stood at 98.9%.
With `CC1(C)C(=O)NCCN1C(=O)Cn1cnc2ccccc21` [CBK281856], the viability at 28.5 h, 10 µM came to 89.3%.
On the same count and under the same terms, as for `c1ccc(-c2cn3ccnc3c(N3CCN(c4ccncc4)CC3)n2)cc1` [CBK066177], the figure is 110%; as for `C=CCN1C(=O)CC2(C1=O)C(=O)N(C)c1ccc(OC)cc12` (centres unmarked) [CBK075158], 101%.
In the case of `CCc1csc(C(=Cc2cccs2)C(N)=O)n1` [CBK001007], the viability at 28.5 h, 10 µM was found to be 90.2%.
Take `Cc1ccc(S(=O)(=O)NCCSc2ccccc2)cc1[N+](=O)[O-]` [CBK263991]: the viability at 28.5 h, 10 µM was 93.6%.
On to `NC(=O)c1cccc(CNC2CCCN(c3cccnn3)C2)c1` (centres unmarked) [CBK305115], for which the viability at 28.5 h, 10 µM was found to be 103%.
As to `Cn1ncc2c1CCCN(C(=O)COc1ccc(F)cc1F)C2` [CBK285229], the viability at 28.5 h, 10 µM is 90.6%.
As to `O=C(NC(c1ccc2c(c1)CCO2)C1CC(O)C1)c1cccc(=O)[nH]1` (centres unmarked) [CBK307463], the viability at 28.5 h, 10 µM worked out at 86.2%.
Take `O=C(CCC1CCCO1)N1CCCC(COc2ccc(F)cc2)C1` (centres unmarked) [CBK282031]: the viability at 28.5 h, 10 µM worked out at 97.7%.

The data set is the same for the next values; noted with them: human, hela cells, % viability, bulk resorufin, single well.
With `O=C1NC(=O)C(=Cc2cccc(OC(F)(F)C(F)F)c2)C(=O)N1` [CBK265150], the viability at 28.5 h, 10 µM came to 108%.

The record behind these values is PMC12040169 (PLOS Biology, 2025).
